Measurements taken from PMC8621172, “Manipulating Estrogenic/Anti-Estrogenic Activity of Triphenylethylenes towards Development of Novel Anti-Neoplastic SERMs” (International Journal of Molecular Sciences, 2021).

Experiments:
[1] = test system: Ishikawa endometrial adenocarcinoma cell line; experiment: Alkaline phosphatase (AlkP) activity in Ishikawa cells; assay type: cell-based, human; conditions: for Relative alkaline phosphatase activity: 72 h, DMSO set to 1
Method: Alkaline phosphatase (AlkP) activity in these human endometrial cancer cells is markedly stimulated by estrogens.
Because of the potential SERM character of the compounds tested, their estrogenic effects were studied in an endometrial-derived cell culture model, the human endometrial adenocarcinoma cell line Ishikawa. […] All compounds were screened at two concentrations, 0.1 and 1 µM. Its agonistic effect was compared to the vehicle control DMSO (data shown in Supplementary Materials). […] The four compounds were studied in a concentration range of 1 nM to 10 µM.
Estrogens stimulate the activity of alkaline phosphatase (AlkP) in Ishikawa cells (human endometrial adenocarcinoma cells; kindly provided by Prof. Masato Nishida, National Hospital Organization, Kasumigaura Medical Center, Japan). This enzyme activity is estimated by using the chromogen substrate (4-nitrophenylphosphate). […] The procedure was modified by Littlefield et al., 1990 [42].
After 72 h incubation, cells were harvested, washed twice with PBS, and incubated at −80 °C for about 30 min to lyse the cells. After thawing, the lysates were resuspended in reaction buffer (274 mM mannitol, 100 mM CAPS, 4 mM MgCl2, pH 10.4) containing 4 mM p-nitrophenylphosphate (NPP). After incubation for 1 h in the dark, AlkP activity was assayed by using the hydrolysis of p-nitrophenylphosphate to p-nitrophenol at pH 10.4 and the spectrometric determination of the kinetic of the product formation at 405 nm. All compounds were tested in technical triplicates and biological triplicates. Statistical analysis was performed by analysis of variance (ANOVA) and Tukey’s post-hoc test with the significance level of p < 0.05.

MCF-7 cells = experiment: NCI growth inhibition on MCF-7 (single dose and five-dose, SRB); assay type: cell-based, human; conditions: for inhibition at 10 µM / GI50: Homo sapiens, MCF7; for GI50: MCF-7, five-dose assay, 48 h; for inhibition at 10 µM / Growth Inhibition on MCF-7 (%): 10 µM
Method: Compounds were submitted to the Developmental Therapeutics Program (DTP) of the National Cancer Institute (NCI). The program uses a panel of 60 human tumor cell lines representing nine tissue types, including leukemia, non-small cell lung cancer (NSCLC), melanoma, colon cancer, ovarian cancer, CNS cancer, renal cancer, prostate cancer, and breast cancer, to screen for potential new anti-cancer agents. […] Primary screening of synthesized compounds was performed by testing a single high dose of 10 µM in the full NCI-60 panel. The percent growth of treated cells relative to the no-drug control and relative to the time zero number of cells was measured, and a mean graph was provided. The percentage inhibition was then calculated by subtracting the values obtained from 100.
All compounds were subjected to the NCI in vitro disease-oriented human cells screening panel assay. The human tumor cell lines of the cancer-screening panel are grown in RPMI 1640 medium containing 5% fetal bovine serum and 2 mM L-glutamine. For a typical screening experiment, cells are inoculated into 96-well microtiter plates in 100 μL at plating densities ranging from 5000 to 40,000 cells/well depending on the doubling time of individual cell lines. After cell inoculation, the microtiter plates are incubated at 37 °C, 5% CO2, 95% air, and 100% relative humidity for 24 h prior to the addition of experimental drugs. After 24 h, two plates of each cell line are fixed in situ with TCA to represent a measurement of the cell population for each cell line at the time of drug addition. Experimental drugs are solubilized in dimethyl sulfoxide at 400-fold the desired final maximum test concentration and stored frozen prior to use. At the time of drug addition, an aliquot of frozen concentrate is thawed and diluted to twice the desired final maximum test concentration with complete medium containing 50 μg/mL gentamicin. Additional four, 10-fold, or ½ log serial dilutions are made to provide a total of five drug concentrations plus control. Aliquots of 100 μL of these different drug dilutions are added to the appropriate microtiter wells already containing 100 μL of medium, resulting in the required final drug concentrations. Following drug addition, the plates are incubated for an additional 48 h at 37 °C, 5% CO2, 95% air, and 100% relative humidity. For adherent cells, the assay is terminated by the addition of cold TCA. Cells are fixed in situ by the gentle addition of 50 μL of cold 50% (w/v) TCA (final concentration, 10% TCA) and incubated for 60 min at 4 °C. The supernatant is discarded, and the plates are washed five times with tap water and air-dried. Sulforhodamine B (SRB) solution (100 μL) at 0.4% (w/v) in 1% acetic acid is added to each well, and plates are incubated for 10 min at room temperature. After staining, unbound dye is removed by washing five times with 1% acetic acid, and the plates are air-dried. Bound stain is subsequently solubilized with a 10 mM trizma base, and the absorbance is read on an automated plate reader at a wavelength of 515 nm. For suspension cells, the methodology is the same except that the assay is terminated by fixing settled cells at the bottom of the wells by gently adding 50 μL of 80% TCA (final concentration, 16% TCA). Compounds are screened at a dose of 10 µM, hits showing mean growth inhibition over 60 cell lines >50% are escalated for 5-dose screening assay. To construct a dose-response curve, about 60 cell lines of nine tumor subpanels were incubated with five concentrations (0.01–100 μM) for each compound. Three response parameters (GI50, TGI, and LC50) were calculated for each cell line.

COc1ccc(C(C)=C(c2ccc(Cl)cc2)c2ccc(OCCN3CCCCC3)cc2)cc1F [Compound 17, E/Z-1-(2-{4-[1-(4-Chlorophenyl)-2-(3-fluoro-4-methoxyphenyl)-propenyl]-phenoxy}-ethyl)-piperidine]
Relative alkaline phosphatase activity ([1]; 1 µM): 1.31 ± 0.41 | inhibition at 10 µM (MCF-7 cells): 85% | GI50 (MCF-7 cells): 3.34 µM

COc1cc(C(C)=C(c2ccc(O)cc2)c2ccc(Cl)cc2)ccc1F [Compound 4, E/Z-4-[1-(4-Chlorophenyl)-2-(4-fluoro-3-methoxyphenyl)propenyl]-phenol]
Relative alkaline phosphatase activity ([1]; 1 µM): 1.10 ± 0.39 | Growth Inhibition on MCF-7 (%) (MCF-7 cells): No inhibition

COc1ccc(C(C)=C(c2ccc(Cl)cc2)c2ccc(OCCN3CCOCC3)cc2)cc1F [Compound 18, E/Z-4-(2-{4-[1-(4-Chlorophenyl)-2-(3-fluoro-4-methoxyphenyl)-propenyl]-phenoxy}-ethyl)-morpholine]
Relative alkaline phosphatase activity ([1]; 1 µM): 1.01 ± 0.24 | Growth Inhibition on MCF-7 (%) (MCF-7 cells): No inhibition

COc1ccc(C(C)=C(c2ccc(Cl)cc2)c2ccc(OCCN3CCCCCC3)cc2)cc1 [Compound 14, E/Z-1-(2-{4-[1-(4-Chloro-phenyl)-2-(4-methoxy-phenyl)-propenyl]-phenoxy}-ethyl)-azepane]
Relative alkaline phosphatase activity ([1]; 1 µM): 6.58 ± 2.24 | inhibition at 10 µM (MCF-7 cells): 63.5%

COc1ccc(C(C)=C(c2ccc(Cl)cc2)c2ccc(OCCN3CCCCCC3)cc2)cc1F [Compound 19, E/Z-1-(2-{4-[1-(4-Chlorophenyl)-2-(3-fluoro-4-methoxyphenyl)-propenyl]-phenoxy}-ethyl)-azepane]
Relative alkaline phosphatase activity ([1]; 1 nM): 1.02 ± 0.13 | Relative alkaline phosphatase activity ([1]; 10 nM): 1.06 ± 0.11 | Relative alkaline phosphatase activity ([1]; 100 nM): 1.75 ± 0.08 | Relative alkaline phosphatase activity ([1]; 10 µM): 0.04 ± 0.04 | effect on AlkP activity (in words) ([1]; 72 h treatment, 5-dose assay 1 nM to 10 µM): increase the AlkP activity in a dose-pendent manner | inhibition at 10 µM (MCF-7 cells): 75.9% | GI50 (MCF-7 cells): 3.59 µM

COc1ccc(C(C)=C(c2ccc(Cl)cc2)c2ccc(OCCCN(C)C)cc2)cc1 [Compound 10, E/Z-(3-{4-[1-(4-Chloro-phenyl)-2-(4-methoxy-phenyl)-propenyl]-phenoxy}-propyl)-dimethyl-amine]
Relative alkaline phosphatase activity ([1]; 1 µM): 2.55 ± 1.80 | inhibition at 10 µM (MCF-7 cells): 63.1%

COc1ccc(C(C)=C(c2ccc(Cl)cc2)c2ccc(OCCN3CCOCC3)cc2)cc1 [Compound 13, E/Z-4-(2-{4-[1-(4-Chloro-phenyl)-2-(4-methoxy-phenyl)-propenyl]-phenoxy}-ethyl)-morpholine]
Relative alkaline phosphatase activity ([1]; 1 µM): 3.74 ± 2.05 | inhibition at 10 µM (MCF-7 cells): 1.21%
